From PubChem BioAssay AID248 (DTP/NCI, 2004)
Where “and” joins values, the source holds several entries; their conditions need not be identical. Identical values can stand only once. Inconclusive results and toxic doses are left out.

Test system: L1210 leukemia ip in BDF1 mice, survival T/C
Test: NCI In Vivo Anticancer Drug Screen. Data for tumor model L1210 Leukemia (intraperitoneal) in B6D2F1 (BDF1) mice
Settings: endpoint: mean survival time, higher = longer survival
Summary of the method: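 Tumor cells were implanted, animals were treated, and survival was followed. The result divides the treated measurement by the vehicle-control measurement.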

In the case of OC(CBr)C(O)C(O)C(O)CBr (centres undefined), the T/C (dose: 266.0 mg/kg/injection, schedule: Q01DX001 (ip), vehicle: acetone) was 189 % of control, the T/C (dose: 266.0 mg/kg/injection, schedule: Q01DX001 (ip), vehicle: saline) was 102 % of control and the T/C (dose: 266.0 mg/kg/injection, schedule: Q01DX009 (ip), vehicle: acetone) was 110 % of control. For the same compound, the T/C (dose: 266.0 mg/kg/injection, schedule: Q04DX003 (ip), vehicle: acetone) was 108 % of control, the T/C (dose: 266.0 mg/kg/injection, schedule: Q04DX003 (ip), vehicle: saline) was 100 % of control and 98 % of control and the T/C (dose: 266.0 mg/kg/injection, schedule: Q08DX002 (ip), vehicle: acetone) was 102 % of control. The T/C (dose: 266.0 mg/kg/injection, schedule: Q08DX002 (ip), vehicle: saline) was 100 % of control, the T/C (dose: 360.0 mg/kg/injection, schedule: Q01DX009 (ip), vehicle: saline) was 104 % of control and the T/C (dose: 400.0 mg/kg/injection, schedule: Q01DX001 (ip), vehicle: acetone) was 110 % of control. The T/C (dose: 400.0 mg/kg/injection, schedule: Q01DX001 (ip), vehicle: other) was 105 % of control, the T/C (dose: 400.0 mg/kg/injection, schedule: Q01DX001 (ip), vehicle: saline) was 101 % of control and 104 % of control and the T/C (dose: 400.0 mg/kg/injection, schedule: Q01DX009 (ip), vehicle: acetone) was 113 % of control. The T/C (dose: 400.0 mg/kg/injection, schedule: Q01DX009 (ip), vehicle: other) was 97 % of control, the T/C (dose: 400.0 mg/kg/injection, schedule: Q04DX003 (ip), vehicle: acetone) was 112 % of control and the T/C (dose: 400.0 mg/kg/injection, schedule: Q04DX003 (ip), vehicle: saline) was 102 % of control. The T/C (dose: 400.0 mg/kg/injection, schedule: Q08DX002 (ip), vehicle: acetone) was 103 % of control, the T/C (dose: 400.0 mg/kg/injection, schedule: Q08DX002 (ip), vehicle: saline) was 102 % of control and the T/C (dose: 480.0 mg/kg/injection, schedule: Q01DX009 (sc), vehicle: carboxymethylcellulose (CMC)) was 93 % of control. The T/C (dose: 480.0 mg/kg/injection, schedule: Q## X008 (ip), vehicle: carboxymethylcellulose (CMC)) was 94 % of control, the T/C (dose: 500.0 mg/kg/injection, schedule: Q01DX001 (ip), vehicle: carboxymethylcellulose (CMC)) was 96 % of control and 100 % of control and 93 % of control and the T/C (dose: 500.0 mg/kg/injection, schedule: Q01DX009 (ip), vehicle: carboxymethylcellulose (CMC)) was 105 % of control. The T/C (dose: 500.0 mg/kg/injection, schedule: Q01DX015 (ip), vehicle: saline) was 110 % of control, the T/C (dose: 500.0 mg/kg/injection, schedule: Q01DX Z (ip), vehicle: carboxymethylcellulose (CMC)) was 94 % of control and 104 % of control and the T/C (dose: 500.0 mg/kg/injection, schedule: Q02DX005 (ip), vehicle: carboxymethylcellulose (CMC)) was 108 % of control. The T/C (dose: 500.0 mg/kg/injection, schedule: Q04DX003 (ip), vehicle: carboxymethylcellulose (CMC)) was 95 % of control, the T/C (dose: 540.0 mg/kg/injection, schedule: Q01DX009 (ip), vehicle: saline) was 111 % of control and the T/C (dose: 600.0 mg/kg/injection, schedule: Q01DX001 (ip), vehicle: acetone) was 100 % of control. The T/C (dose: 600.0 mg/kg/injection, schedule: Q01DX001 (ip), vehicle: saline) was 104 % of control, the T/C (dose: 600.0 mg/kg/injection, schedule: Q01DX009 (ip), vehicle: acetone) was 113 % of control and the T/C (dose: 600.0 mg/kg/injection, schedule: Q04DX003 (ip), vehicle: acetone) was 123 % of control. The T/C (dose: 600.0 mg/kg/injection, schedule: Q04DX003 (ip), vehicle: saline) was 102 % of control, the T/C (dose: 600.0 mg/kg/injection, schedule: Q08DX002 (ip), vehicle: acetone) was 103 % of control and the T/C (dose: 600.0 mg/kg/injection, schedule: Q08DX002 (ip), vehicle: saline) was 102 % of control. For the same compound, the T/C (dose: 800.0 mg/kg/injection, schedule: Q01DX001 (ip), vehicle: other) was 109 % of control, the T/C (dose: 900.0 mg/kg/injection, schedule: Q01DX001 (ip), vehicle: acetone) was 108 % of control and the T/C (dose: 900.0 mg/kg/injection, schedule: Q01DX001 (ip), vehicle: saline) was 105 % of control. For the same compound, the T/C (dose: 900.0 mg/kg/injection, schedule: Q04DX003 (ip), vehicle: acetone) was 100 % of control, the T/C (dose: 900.0 mg/kg/injection, schedule: Q04DX003 (ip), vehicle: saline) was 105 % of control and the T/C (dose: 900.0 mg/kg/injection, schedule: Q08DX002 (ip), vehicle: acetone) was 100 % of control. For the same compound, the T/C (dose: 900.0 mg/kg/injection, schedule: Q08DX002 (ip), vehicle: saline) was 94 % of control, the T/C (dose: 1000.0 mg/kg/injection, schedule: Q01DX001 (ip), vehicle: carboxymethylcellulose (CMC)) was 100 % of control and 104 % of control and 94 % of control and the T/C (dose: 1000.0 mg/kg/injection, schedule: Q01DX015 (ip), vehicle: saline) was 121 % of control. The T/C (dose: 1000.0 mg/kg/injection, schedule: Q04DX003 (ip), vehicle: carboxymethylcellulose (CMC)) was 113 % of control and the T/C (dose: 1440.0 mg/kg/injection, schedule: Q## X003 (oral), vehicle: carboxymethylcellulose (CMC)) was 96 % of control.
